Consider one compound from ChEMBL document CHEMBL1149270, “Design and synthesis of a potent and selective peptidomimetic inhibitor of caspase-3” (J Med Chem, 2004).

Test [1] addresses T1, Caspase-3 (Homo sapiens) (UniProt P42574).
T1 sequence (whole entry): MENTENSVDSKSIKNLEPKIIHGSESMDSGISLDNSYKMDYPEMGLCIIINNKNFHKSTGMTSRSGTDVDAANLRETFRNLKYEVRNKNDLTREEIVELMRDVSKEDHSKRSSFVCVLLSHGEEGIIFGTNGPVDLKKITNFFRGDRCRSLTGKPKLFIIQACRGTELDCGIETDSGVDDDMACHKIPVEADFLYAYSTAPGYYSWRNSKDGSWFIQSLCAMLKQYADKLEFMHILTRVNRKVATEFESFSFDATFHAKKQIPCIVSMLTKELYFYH
The test can be described thus: […] caspase 3 activity at 210 nM relative to control. Details: scale not given: the % may be the effect or the level left.

Test [2] addresses T2, Caspase-6 (Homo sapiens) (UniProt P55212).
T2 sequence (whole entry): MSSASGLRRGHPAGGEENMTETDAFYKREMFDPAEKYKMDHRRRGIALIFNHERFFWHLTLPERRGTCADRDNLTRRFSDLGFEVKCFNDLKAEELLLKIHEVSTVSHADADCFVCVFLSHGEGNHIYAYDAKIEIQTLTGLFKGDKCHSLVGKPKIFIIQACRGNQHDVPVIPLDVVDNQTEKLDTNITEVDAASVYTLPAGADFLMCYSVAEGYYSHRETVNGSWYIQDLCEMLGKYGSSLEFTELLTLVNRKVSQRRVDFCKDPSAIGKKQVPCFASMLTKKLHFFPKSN
The test can be described thus: Effect on recombinant caspase 6 activity at 210 nM relative to control.

For test [3], the target named is T3, Caspase-4 (Homo sapiens) (UniProt P49662).
T3 sequence (whole entry): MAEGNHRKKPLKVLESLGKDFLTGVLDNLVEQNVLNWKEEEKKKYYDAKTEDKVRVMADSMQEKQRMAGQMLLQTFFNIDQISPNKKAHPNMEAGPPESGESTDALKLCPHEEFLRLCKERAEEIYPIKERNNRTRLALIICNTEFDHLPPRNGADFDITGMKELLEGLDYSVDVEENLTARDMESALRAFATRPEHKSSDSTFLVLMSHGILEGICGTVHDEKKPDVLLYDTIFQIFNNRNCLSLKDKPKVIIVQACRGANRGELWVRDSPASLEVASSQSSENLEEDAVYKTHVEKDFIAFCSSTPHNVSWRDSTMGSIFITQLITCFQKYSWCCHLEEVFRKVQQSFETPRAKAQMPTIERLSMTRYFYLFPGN
Nature of the test: Effect on recombinant caspase 4 activity at 210 nM relative to control.

Take `CC(=O)N[C@@H](CC(=O)O)C(=O)NC1N=C(c2ccccc2)c2ccccc2N(CC(=O)N[C@H]2CC(=O)OC2O)C1=O` (stereo partly drawn): the values for the Activity in test [1], in test [2] and in test [3] were 9%, 58% and 95%, respectively.
